Experimental data as given in patent publication US20250011869A1, “TLR3 INHIBITORS FOR USE IN THE TREATMENT OF DISEASES ASSOCIATED WITH CARDIOVASCULAR CALCIFICATION” (priority 2021, published 2025).
“Also recorded” adds a separate entry of the source.

Key:
zebrafish (Danio rerio) = test: Zebrafish VitD3-induced calcification model; assay type: in vivo; settings: larvae from 5 dpf, 5 days; for VitD3-induced calcification on co-incubation: VitD3 200 ng/mL with TLR3-inhibitor 5 μg/mL, opercle and all bone structures
Protocol: Fish were maintained and raised under standard husbandry conditions. VitD3 treatments were performed as previously described^26 with some minor modifications. Briefly: 15 animals (5 dpf) were pooled per 6-well pate and incubated for 5 days at 28° C. in 4 ml E3 medium containing 0.1% DMSO and different compounds as indicated. Larvae were fixed in 4% PFA overnight. Final concentration of compounds was 5 μg/mL for TLR3-inhibitor (Merck, Darmstadt, Germany) and 200 ng/mL VitD3 (Sigma, St. Louis, MO). Dilutions were generated from stock solutions with 10 mg/mL TLR3-INH and 200 mg/mL VitD3 in DMSO. Solutions containing VitD3 were changed every day. All experiments were done in duplicates. Alizarin Red stains were performed as described previously^27 with some minor modifications. After staining larvae were transferred to 100% glycerol and imaged. Area measurements were carried out as described^28.
Whole area: For each larva three independent ventral view images were taken with a Leica MZ16FA using standardized stereomicroscope settings. After each image the larvae were embedded anew. Data quantification was done with ImageJ. Standard white balance was used for background subtraction. Image were converted to greyscale (8 bit) and threshold was set to 225. The stained area excluding the otoliths was measured.
Opercula area: Larvae were imaged laterally from both sides using a standard microscope setting. Area measurements were performed as described above.

VICs = test: Calcification assay of VICs in osteogenic medium (Alizarin Red S, alkaline phosphatase); assay type: cell-based, human; settings: VICs in osteoblastic medium; for calcification / production of calcific nodules: Poly(I:C) 20 μg/mL or inhibitor 26 μM, Alizarin Red S
Protocol: For functional evaluation of osteoblastic activity, VICs were subjected to a calcification assay. Cells were cultured in osteogenic medium including 10 mmol/L beta-glycerophosphate, 10 nmol/L vitamin D3, and 10 nmol/L dexamethasone as described previously^4. The medium was changed every three days. Subsequently, supernatant was analyzed for alkaline phosphatase activity using the commercially available alkaline phosphatase assay kit (Abcam, Cambridge, UK). After careful rinsing with PBS, cells were fixed with 4% paraformaldehyde, washed with distilled water and Alizarin Red S staining solution (Alfa Aesar, Haverhill, MA) was added upon the fixed cells for 20 minutes at room temperature (RT). Imaging of the staining was performed using a Zeiss Axioplan 2 microscope (Zeiss, Oberkochen, Germany). Images were processed using Adobe Photoshop CS5.1 for Mac (Adobe Systems Inc., San Jose, CA, USA) and analyzed with ImageJ software (National Institutes of Health, Bethesda, […]).

[1] = target: T1, recombinant human TLR3 ectodomain (huTLR3-ECD), residues 27-700, C-terminal 6x His tag (human, UniProt O15455 27-700); test: size-exclusion chromatography of the mixed proteins, fractions immunoblotted
T1 construct: also called purified TLR3 ectodomain; hTLR3-ECD
Protocol: To obtain core protein of bovine biglycan, purchased biglycan (Sigma, St. Louis, MO) was incubated with Chondroitinase ABC (Merck, Darmstadt, Germany) at 37° C. for 2 h. Digestion of chondroitin sulfate was verified by electrophoresis and subsequent Coomassie-staining. To 185 μl of digested BGN (0.5 mg/ml) 15 μl of TLR3 (1 mg/ml) was added and incubated on ice for 30 min. The sample was subjected to size exclusion chromatography (Supedex200 increased 10/300 GL column) using 20 mM HEPES pH7.5 100 mM NaCl as running buffer. Fractions were collected and analyzed by Immunoblotting as described above.

TLR3 = TLR3 (Homo sapiens, UniProt O15455); test: HEK293 hTLR3 reporter cell assay (TLR3/ISRE LUCPorter, luminometer); assay type: cell-based; settings: putative ligands at increasing concentrations, 24 h (biglycan 5, 10, 20 μg/ml)
Protocol: All cells were cultivated under standard conditions (37° C., supplied with 5% CO2). Passaging of the cells was performed at 70-90% confluency, and cells were only used until passage 7 as described previously^6. Polyinosinic: polycytidylic acid (Poly(I:C); Invivogen, San Diego, CA) was used to stimulate cells at a concentration of either 20 μg/mL or 5 μg/ml, depending on the assay. For blockade of TLR3, the commercially available dsRNA/TLR3 inhibitor ((R)-2-(3-Chloro-6-fluorobenzo [b] thiophene-2-carboxamido)-3-phenyl-propanoic acid) was used (Merck, Darmstadt, Germany) at a concentration of 1 μg/ml as described previously^1,7. LY294002 (Invivogen, San Diego, CA), a PI3K inhibitor, was used at a concentration of 10 μM. For blockade of IFNAR1, a specific blocking antibody (Invitrogen, Carlsbad, CA) was used at a concentration of 4 μg/ml. A stable HEK (human embryonic kidney) reporter cell line (TLR3/ISRE LUCPorter; Imgenex, USA) was purchased for luminometer assay experiments. Cells were cultivated according to the manufacturer's protocol in DMEM with 4.5 g/L glucose (Lonza, Switzerland), 10% FCS (Sigma, St. Louis, MO), penicillin/streptomycin, and 4 mM L-glutamine and […] puromycin (Gibco, USA) as selection agent. Reporter experiments were performed as described previously^8. […]

Molecule: O=C(N[C@H](Cc1ccccc1)C(=O)O)c1sc2cc(F)ccc2c1Cl [TLR3 inhibitor, (R)-2-(3-Chloro-6-fluorobenzo [b]thiophene-2-carboxamido)-3-phenyl-propanoic acid]
- VitD3-induced calcification on co-incubation (zebrafish (Danio rerio)): reduced calcification; also recorded: abolished
- VitD3-induced calcification on co-incubation (zebrafish (Danio rerio); listed as Tlr3 inhibitor): severely impaired calcification of the skeleton
- calcification / production of calcific nodules (VICs): reduced calcification
- calcification / production of calcific nodules (VICs; listed as dsRNA/TLR3 complex inhibitor): reduced
- alkaline phosphatase (ALP) activity (VICs; supernatant): reduced

Molecule: C=C1CC[C@H](O)C/C1=C/C=C1\CCC[C@]2(C)[C@@H]([C@H](C)CCCC(C)C)CC[C@@H]12 [VitD3, vitamin D3]
- calcification of landmark bones (zebrafish (Danio rerio); VitD3 200 ng/mL alone): early and strong calcification of landmark bones

B1: core protein of bovine biglycan (purchased biglycan, Sigma, digested with Chondroitinase ABC) (ligand, UniProt P21809 38-369, looked up)
chain: DEEASGAETTSGIPDLDSLPPTYSAMCPFGCHCHLRVVQCSDLGLKAVPKEISPDTTLLDLQNNDISELRKDDFKGLQHLYALVLVNNKISKIHEKAFSPLRKLQKLYISKNHLVEIPPNLPSSLVELRIHDNRIRKVPKGVFSGLRNMNCIEMGGNPLENSGFEPGAFDGLKLNYLRISEAKLTGIPKDLPETLNELHLDHNKIQAIELEDLLRYSKLYRLGLGHNQIRMIENGSLSFLPTLRELHLDNNKLSRVPAGLPDLKLLQVVYLHTNNITKVGVNDFCPVGFGVKRAYYNGISLFNNPVPYWEVQPATFRCVTDRLAIQFGNYKK
modifications: chondroitin sulfate removed by Chondroitinase ABC digestion
notes: also called digested BGN; BGN
- binding result [1]: binds

B2: rhBGN: BGN lacking chondroitin sulfate chains (protein)
chain (part 1 of 2): HHHHHH
chain (part 2 of 2): DEEASGADTSGVLDPDSVTPTYSAMCPFGCHCHLRVVQCSDLGLKSVPKEISPDTTLLDLQNNDISELRKDDFKGLQHLYALVLVNNKISKIHEKAFSPLRKLQKLYISKNHLVEIPPNLPSSLVELRIHDNRIRKVPKGVFSGLRNMNCIEMGGNPLENSGFEPGAFDGLKLNYLRISEAKLTGIPKDLPETLNELHLDHNKIQAIELEDLLRYSKLYRLGLGHNQIRMIENGSLSFLPTLRELHLDNNKLARVPSGLPDLKLLQVVYLHSNNITKVGVNDFCPMGFGVKRAYYNGISLFNNPVPYWEVQPATFRCVTDRLAIQFGNYKK
modifications: left off: small tags and cut ends
notes: BGN lacking chondroitin sulfate chains
- activation of TLR3 reporter cells (TLR3): did not activate TLR3
